Data published in paper PMC5927802, “Pharmacokinetics, safety, and tolerability of the 2‐ and 3‐direct‐acting antiviral combination of AL‐335, odalasvir, and simeprevir in healthy subjects” (Pharmacology Research & Perspectives, 2018).
Where two headings read alike, the source gives them in different places.

Key:
OATP1B1/1B3 = conditions: cited from earlier work
[1] = test system: CYPs 1A2, 2B6, 2C8, 2C9, 2C19, 2D6, and 3A4; set-up: method as in data on file; conditions: ref data on file; cited from earlier work
[2] = test system: host polymerases, including the mitochondrial RNA polymerase; conditions: cited from earlier work
[3] = Plasma pharmacokinetics, Phase I open‐label two‐group fixed‐sequence drug‐drug interaction study; conditions: for AUC0‐24 h LSM ratio / C max LSM ratio: point estimate (90% CI); for AUC: AUC0‐24 h; for Tmax: T max
Description: This was an open‐label, two‐group, fixed‐sequence study conducted at a single study center in Rennes, France (Biotrial). A two‐group, fixed‐sequence study design was chosen as this was deemed to be the most efficient way to evaluate the effect of simeprevir with/without odalasvir on AL‐335; and vice versa (Group 1) and the effect of odalasvir with/without simeprevir on AL‐335; and vice versa (Group 2). Thus, this study design had the potential to gather both 2‐way and 3‐way DDIs. For both groups, the study consisted of a screening period, a study period, and two follow‐up visits. The study was authorized by the French National Agency for the Safety of Medicine and Health Products (ANSM) and was approved by an Independent Ethics Committee (Comité de Protection des Personnes [CPP] Ouest VI, Brest, France; Reference CPP Ouest 6–CPP 888/MS1), and was conducted in accordance with the principles of the Declaration of Helsinki and International Conference on Harmonization. All subjects provided written informed consent to participate. Drug and molecular target nomenclature in this manuscript conforms to the British Journal of Pharmacology's Concise Guide to Pharmacology 2017/18.19
Subjects in Group 1 received simeprevir 150 mg QD on days 4‐23, odalasvir 150 mg (loading dose) on day 14, odalasvir 50 mg QD on days 15‐23, and AL‐335 800 mg QD on days 1‐3, 11‐13, and 21‐23. Subjects in Group 2 received odalasvir 150 mg (loading dose) on day 4, odalasvir 50 mg QD on days 5‐23, simeprevir 150 mg QD on days 14‐23, and AL‐335 800 mg QD on days 1‐3, 11‐13, and 21‐23. […] A minimum of 10 days was considered sufficient for both odalasvir and simeprevir to reach steady‐state.
Subjects were assigned sequentially to Group 1 then to Group 2 after confirming eligibility.
As this was an […] pharmacokinetic study, blood samples for pharmacokinetic analysis were collected predose and at 0.25, 0.5, 1, 2, 3, 4, 6, 8, 10, 12, and 24 hours postdose on days 3, 13, and 23 for determination of AL‐335, ALS‐022399, and ALS‐022227 plasma concentrations (Groups 1 and 2). For simeprevir, blood samples for determination of simeprevir plasma concentrations were taken at the same time points but on days 10, 13, 20, and 23 (Group 1) or days 20 and 23 (Group 2). Blood samples for the determination of odalasvir plasma concentrations were collected predose and at 1, 3, 4, 5, 6, 7, 8, 9, 10, 12, 16, and 24 hours postdose on days 20 and 23 (Group 1) or days 10, 13, 20, and 23 (Group 2), with two further samples also collected on the day 7 and day 28 follow‐up assessments (both groups).
Plasma concentrations of AL‐335, ALS‐022399, ALS‐022227, odalasvir, and simeprevir were determined using validated liquid chromatography‐tandem mass spectrometry methods. Dichlorvos solution was added to blood samples from AL‐335‐treated subjects to stabilize AL‐335 and its metabolites (25 μL of 5 mmol/L dichlorvos into 1 mL blood). The lower limit of quantification was 1 ng/mL, 2 ng/mL, and 5 ng/mL for AL‐335, ALS‐022399, and ALS‐022227, respectively, 1 ng/mL for odalasvir, and 2 ng/mL for simeprevir.
Pharmacokinetic analyses were performed on all subjects with available profiles who received at least one dose of study drug without any protocol deviation affecting pharmacokinetic evaluation. […] Secondary parameters were last observed plasma concentration, apparent elimination half‐life, time of the maximum observed plasma concentration (T max), and time to last measurable plasma concentration (T last).

[4] = test system: breast cancer resistance protein (BCRP); conditions: ref data on file; cited from earlier work
P‐glycoprotein = conditions: cited from earlier work
[5] = in vivo; cited from earlier work
[6] = Group 1 Day 3, AL‐335 alone, mean (SD)
[7] = Group 1 Day 13, AL‐335 + SMV, mean (SD)
[8] = Group 1 Day 23, AL‐335 + ODV + SMV versus AL‐335 alone
[9] = Group 1 Day 23, AL‐335 + ODV + SMV, mean (SD)
[10] = Group 2 Day 3, AL‐335 alone, mean (SD)
[11] = Group 2 Day 13, AL‐335 + ODV, mean (SD)
[12] = Group 2 Day 23, AL‐335 + ODV + SMV versus AL‐335 alone
[13] = Group 2 Day 23, AL‐335 + ODV + SMV, mean (SD)

CC(C)OC(=O)[C@H](C)N[P@](=O)(OC[C@@]1(F)O[C@@H](n2ccc(=O)[nH]c2=O)[C@](C)(O)[C@@H]1O)Oc1ccccc1 [AL‐335]
OATP1B1/1B3 substrate / inhibitor status (OATP1B1/1B3; ref data on file): neither a substrate nor an inhibitor | inhibition potential for CYPs [1]: low inhibition potential | interaction with host polymerases [2]: do not interact | difference in T max between any of the treatment combinations ([3]; AL‐335 alone or with odalasvir and/or simeprevir): No clinically relevant difference | C last [3, 6]: 6 (8) ng/mL | C max [3, 6]: 162 (77) ng/mL | T last ([3]; Group 1 Day 3, AL‐335 alone, median (range)): 6.00 (4.00‐6.00) h | C last [3, 7]: 3 (2) ng/mL | C max [3, 7]: 376 (186) ng/mL | T last ([3]; Group 1 Day 13, AL‐335 + SMV, median (range)): 8.00 (6.00‐10.00) h | AUC0‐24 h LSM ratio [3, 8]: 6.92 (5.46‐8.77) | C max LSM ratio [3, 8]: 4.60 (3.68‐5.75) | C last [3, 9]: 3 (1) ng/mL | C max [3, 9]: 747 (340) ng/mL | T last ([3]; Group 1 Day 23, AL‐335 + ODV + SMV, median (range)): 8.00 (6.00‐10.08) h | C last [3, 10]: 3 (2) ng/mL | C max [3, 10]: 151 (72) ng/mL | T last ([3]; Group 2 Day 3, AL‐335 alone, median (range)): 6.00 (4.00‐8.00) h | C last [3, 11]: 2 (1) ng/mL | C max [3, 11]: 516 (259) ng/mL | T last ([3]; Group 2 Day 13, AL‐335 + ODV, median (range)): 8.00 (4.00‐12.00) h | AUC0‐24 h LSM ratio [3, 12]: 8.23 (6.26‐10.82) | C max LSM ratio [3, 12]: 6.30 (4.93‐8.05) | C last [3, 13]: 2 (1) ng/mL | C max [3, 13]: 950 (472) ng/mL | T last ([3]; Group 2 Day 23, AL‐335 + ODV + SMV, median (range)): 10.00 (8.00‐12.03) h | AUC ([3]; human, in vivo, 800 mg, Group 1 Day 3, AL‐335 alone, mean (SD)): 295 ng·h/mL | AUC ([3]; human, in vivo, 800 mg, Group 2 Day 3, AL‐335 alone, mean (SD)): 324 ng·h/mL | Tmax ([3]; human, in vivo, 800 mg, Group 1 Day 3, AL‐335 alone, median (range)): 2 h | Tmax ([3]; human, in vivo, 800 mg, Group 2 Day 3, AL‐335 alone, median (range)): 2 h | half-life ([3]; human, in vivo, 800 mg, t 1/2, Group 1 Day 3, AL‐335 alone, mean (SD)): 0.61 h | half-life ([3]; human, in vivo, 800 mg, t 1/2, Group 2 Day 3, AL‐335 alone, mean (SD)): 0.69 h | AUC ([3]; human, in vivo, Group 1 Day 13, AL‐335 + SMV, mean (SD)): 1000 ng·h/mL | AUC ([3]; human, in vivo, Group 1 Day 23, AL‐335 + ODV + SMV, mean (SD)): 2080 ng·h/mL | AUC ([3]; human, in vivo, Group 2 Day 13, AL‐335 + ODV, mean (SD)): 1330 ng·h/mL | AUC ([3]; human, in vivo, Group 2 Day 23, AL‐335 + ODV + SMV, mean (SD)): 2920 ng·h/mL | Tmax ([3]; human, in vivo, Group 1 Day 13, AL‐335 + SMV, median (range)): 2 h | Tmax ([3]; human, in vivo, Group 1 Day 23, AL‐335 + ODV + SMV, median (range)): 2 h | Tmax ([3]; human, in vivo, Group 2 Day 13, AL‐335 + ODV, median (range)): 2 h | Tmax ([3]; human, in vivo, Group 2 Day 23, AL‐335 + ODV + SMV, median (range)): 3 h | half-life ([3]; human, in vivo, t 1/2, Group 1 Day 13, AL‐335 + SMV, mean (SD)): 0.64 h | half-life ([3]; human, in vivo, t 1/2, Group 1 Day 23, AL‐335 + ODV + SMV, mean (SD)): 0.69 h | half-life ([3]; human, in vivo, t 1/2, Group 2 Day 13, AL‐335 + ODV, mean (SD)): 0.62 h | half-life ([3]; human, in vivo, t 1/2, Group 2 Day 23, AL‐335 + ODV + SMV, mean (SD)): 0.84 h | AUC 0‐24 h increase ([3]; odalasvir given alone with AL‐335 (abstract)): 3 fold | AUC 0‐24 h increase ([3]; simeprevir given alone with AL‐335 (abstract)): 4 fold | BCRP substrate status [4]: substrate

C[C@]1(O)[C@H](n2ccc(=O)[nH]c2=O)O[C@](F)(CO)[C@H]1O [ALS‐022227]
OATP1B1/1B3 substrate / inhibitor status (OATP1B1/1B3): neither substrates nor inhibitors | P‐glycoprotein substrate / inhibitor status (P‐glycoprotein): neither substrates nor inhibitors | difference in T max between any of the treatment combinations ([3]; human, in vivo): No clinically relevant difference | t 1/2 ([3]; human, in vivo): 6.0 (0.5) h

COC(=O)N[C@H](C(=O)N1[C@H](c2nc3cc(-c4cc5ccc4CCc4ccc(c(-c6ccc7[nH]c([C@@H]8C[C@@H]9CCCC[C@@H]9N8C(=O)[C@@H](NC(=O)OC)C(C)C)nc7c6)c4)CC5)ccc3[nH]2)C[C@@H]2CCCC[C@@H]21)C(C)C [odalasvir]
clearance route and metabolism [5]: primarily cleared by biliary secretion and undergoes minimal metabolism | drug‐drug interactions (DDIs) [5]: No clinically significant drug‐drug interactions | terminal elimination half‐life [5]: approximately 250 hours | AUC0‐24 h ([3]; human, in vivo): 8694 (3956) ng.h/mL | C max ([3]; human, in vivo): 582 (221) ng/mL | T max ([3]; human, in vivo): 5.00 (5.0‐7.0) h | increase in exposure (C max, C min, AUC0‐24 h) ([3]; human, in vivo): 1.5‐ to 2 | C min ([3]; in vivo): 235 (132) ng/mL | Clast ([3]; in vivo): 287 (150) ng/mL | T last ([3]; in vivo): 23.9 (23.9‐24.0) h
